Reference: the CheMixHub drug solubility set

Test: xn = mol fraction of the nth substance listed, in the solute-free solvent

COC(=O)C1=C(C)NC(C)=C(C(=O)OCC(C)C)C1c1ccccc1[N+](=O)[O-] (configuration not stated) + CC#N + O
solubility (g/100 g solution)
Settings	278.15 K	283.15 K	288.15 K	293.15 K	298.15 K	303.15 K	308.15 K	313.15 K	318.15 K
x2 = 0.04651	0.165	0.218	0.288	0.377	0.488	0.61	0.767	0.973	1.21
x2 = 0.0989	0.678	0.855	1.1	1.36	1.7	2.08	2.53	3.12	3.73
x2 = 0.1583	1.3	1.62	2.02	2.51	3.07	3.73	4.57	5.46	6.5
x2 = 0.2264	2.08	2.58	3.1	3.86	4.65	5.62	6.61	7.85	9.2
x2 = 0.3051	2.84	3.54	4.32	5.15	6.3	7.5	8.79	10.4	12.1
x2 = 0.397	3.75	4.65	5.65	6.7	8.1	9.55	11.2	13.1	15.2
x2 = 0.506	4.72	5.77	6.86	8.3	9.96	11.8	13.7	15.7	18
x2 = 0.6372	5.69	6.77	8.36	9.95	11.7	13.6	15.7	18.2	20.7
x2 = 0.798	6.56	7.83	9.45	11.2	13.1	15.2	17.6	20.2	22.9

COC(=O)C1=C(C)NC(C)=C(C(=O)OCC(C)C)C1c1ccccc1[N+](=O)[O-] (configuration not stated) + CCOC(C)=O + CC(C)O
solubility (g/100 g solution)
Settings	278.15 K	283.15 K	288.15 K	293.15 K	298.15 K	303.15 K	308.15 K	313.15 K	318.15 K
x2 = 0.07045	3.52	4.21	5.01	5.86	6.83	7.91	9.07	10.5	11.9
x2 = 0.1457	4.03	4.67	5.54	6.46	7.55	8.74	9.96	11.4	12.9
x2 = 0.2262	4.4	5.19	6.09	7.07	8.21	9.47	10.8	12.3	13.9
x2 = 0.3126	4.88	5.76	6.68	7.75	8.91	10.2	11.5	13	14.7
x2 = 0.4055	5.37	6.28	7.26	8.31	9.53	10.8	12.3	13.8	15.4
x2 = 0.5057	5.77	6.69	7.7	8.82	10.1	11.4	12.9	14.5	16.1
x2 = 0.6141	6.12	7.09	8.13	9.25	10.6	12	13.5	15.1	16.8
x2 = 0.7318	6.4	7.37	8.53	9.72	11	12.5	14.1	15.7	17.5
x2 = 0.8599	6.59	7.63	8.83	10	11.4	12.8	14.3	16	17.8
